Test results from patent US20250340552A1, “COMPOUNDS, COMPOSITIONS AND METHODS OF TREATING DISORDERS” (HOTSPOT THERAPEUTICS, INC., priority 2022, published 2025).
Where two headings read alike, the source gives them in different places.

Target: T1, Cbl-B (Homo sapiens, UniProt Q13191)
T1 construct: MSD-Based Assay for Degradation of Cbl-B in THP-1 Cells; endogenous in cells; host or cells: THP-1 (title) / Jurkat (protocol text)
Assay: MSD-based assay for degradation of Cbl-B in THP-1 cells
Assay type: cell-based
In short: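 Reported Dmax bins are A >70%, B 50–70%, C 30–50% and D <30%, from an electrochemiluminescence (MSD) sandwich assay of Cbl-B in cell lysates. THP-1 cells were exposed to compounds for 24 hours before lysis.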

[1] = Cbl-B degradation, Jurkat cells seeded (heading: THP-1 cells), 24 hours incubation, MSD readout
[2] = Cbl-B degradation, Jurkat cells seeded (heading: THP-1 cells), 24 hours incubation, MSD readout, read-out: Dmax

T1 sequence (Q13191 whole entry): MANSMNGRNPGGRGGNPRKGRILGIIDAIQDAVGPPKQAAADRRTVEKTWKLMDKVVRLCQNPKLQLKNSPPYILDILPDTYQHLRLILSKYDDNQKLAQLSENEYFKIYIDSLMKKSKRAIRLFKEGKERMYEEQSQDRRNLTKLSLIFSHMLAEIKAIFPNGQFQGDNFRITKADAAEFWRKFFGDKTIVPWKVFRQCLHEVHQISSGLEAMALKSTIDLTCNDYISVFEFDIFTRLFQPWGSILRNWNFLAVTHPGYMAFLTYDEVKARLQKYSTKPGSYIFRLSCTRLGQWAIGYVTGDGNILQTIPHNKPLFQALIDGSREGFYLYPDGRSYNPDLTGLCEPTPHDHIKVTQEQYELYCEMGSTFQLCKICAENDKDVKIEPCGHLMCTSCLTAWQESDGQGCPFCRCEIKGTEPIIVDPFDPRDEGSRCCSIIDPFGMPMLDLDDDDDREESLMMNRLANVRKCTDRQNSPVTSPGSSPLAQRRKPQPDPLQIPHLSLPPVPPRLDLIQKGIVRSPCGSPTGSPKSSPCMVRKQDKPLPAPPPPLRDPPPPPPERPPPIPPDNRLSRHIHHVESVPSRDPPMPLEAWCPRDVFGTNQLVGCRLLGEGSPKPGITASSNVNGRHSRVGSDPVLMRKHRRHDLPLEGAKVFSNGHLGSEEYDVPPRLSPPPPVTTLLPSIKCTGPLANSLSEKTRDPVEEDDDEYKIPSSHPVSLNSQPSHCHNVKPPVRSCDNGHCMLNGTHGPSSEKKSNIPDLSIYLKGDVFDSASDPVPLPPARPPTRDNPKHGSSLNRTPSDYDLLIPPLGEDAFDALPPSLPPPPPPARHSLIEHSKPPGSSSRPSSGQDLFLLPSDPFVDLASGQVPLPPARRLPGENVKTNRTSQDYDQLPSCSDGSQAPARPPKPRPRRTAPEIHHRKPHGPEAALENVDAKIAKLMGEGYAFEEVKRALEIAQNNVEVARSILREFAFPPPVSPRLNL

| Structure (SMILES) | DC50 [1] [nM] | Dmax [2] [%] | Dmax (THP-1) [%] |
| --- | --- | --- | --- |
| Cn1cnnc1CC1(c2cccc(-n3cc4c(C(F)(F)F)cc(CN5CCC(CC(=O)N6CCC(CN7CCN(c8ccc9c(c8)CN([C@@H]8CCC(=O)NC8=O)C9=O)CC7)CC6)CC5)cn4c3=O)c2)COC1 [Compound 255] | 30 to 300 | > 70 | – |
| Cn1cnnc1CC1(c2cccc(-n3cc4c(C(F)(F)F)cc(CN5CCC(CC(=O)N6CCC(CN7CCN(c8ccc9c(c8)CN([C@H]8CCC(=O)NC8=O)C9=O)CC7)CC6)CC5)cn4c3=O)c2)COC1 [Compound 256] | < 30 | – | > 70 |
| Cn1cnnc1CC1(c2cccc(-n3cc4c(C(F)(F)F)cc(CN5CCC(CCN6CCC(CC7CCN(c8ccc9c(c8)CN([C@H]8CCC(=O)NC8=O)C9=O)CC7)CC6)CC5)cn4c3=O)c2)COC1 [Compound 260] | 30 to 300 | 30 to 50 | – |
| Cn1cnnc1CC1(c2cccc(-n3cc4c(C(F)(F)F)cc(CN5CCC(C6CCN(C(=O)c7ccc(N8CCN(c9ccc%10c(c9)CN([C@@H]9CCC(=O)NC9=O)C%10=O)CC8)cc7)CC6)CC5)cn4c3=O)c2)COC1 [Compound 261] | < 30 | – | > 70 |
| Cn1cnnc1CC1(c2cccc(-n3cc4c(C(F)(F)F)cc(CN5CCC(C6CCN(C(=O)c7ccc(N8CCN(c9ccc%10c(c9)CN([C@H]9CCC(=O)NC9=O)C%10=O)CC8)cc7)CC6)CC5)cn4c3=O)c2)COC1 [Compound 262] | < 30 | – | > 70 |

Now from value to compound, other results behind:

| DC50 [1] [nM] | Dmax [2] [%] | Structure (SMILES) | Dmax (THP-1) [%] |
| --- | --- | --- | --- |
| < 30 | 50 to 70 | CN(CC1CCN(Cc2cc(C(F)(F)F)c3cn(-c4cccc(C5(Cc6nncn6C)COC5)c4)c(=O)n3c2)CC1)C(=O)c1ccc(C2CCN(c3ccc4c(c3)CN([C@@H]3CCC(=O)NC3=O)C4=O)CC2)cc1 [Compound 241] | – |
| < 30 | > 70 | CN(CC1CCN(Cc2cc(C(F)(F)F)c3cn(-c4cccc(C5(Cc6nncn6C)COC5)c4)c(=O)n3c2)CC1)C(=O)c1ccc(C2CCN(c3ccc4c(c3)CN([C@H]3CCC(=O)NC3=O)C4=O)CC2)cc1 [Compound 242] | – |
| 30 to 300 | > 70 | CO[C@H]1C[C@](c2cccc(-n3cc4c(C(F)(F)F)cc(CN5CCN(CCc6ccc(N7CCN(c8ccc9c(c8)CN([C@@H]8CCC(=O)NC8=O)C9=O)CC7)cc6)CC5)cn4c3=O)c2)(c2nncn2C)C1 [Compound 251] | – |
| < 30 | > 70 | CO[C@H]1C[C@](c2cccc(-n3cc4c(C(F)(F)F)cc(CN5CCN(CCc6ccc(N7CCN(c8ccc9c(c8)CN([C@H]8CCC(=O)NC8=O)C9=O)CC7)cc6)CC5)cn4c3=O)c2)(c2nncn2C)C1 [Compound 252] | – |
